Test results published in patent publication US4622388A, “Des-2-serine, 3 asparagine-calcitonin” (Armour Pharmaceutical Company, priority 1985, dated 1986).
Positions of bridges follow the written chain, without caps; N, C: chain ends. Residues, ends and D or L forms follow the SMILES beside them.

Key:
[1] = system: serum calcium concentration; assay: Biological assay of calcitonin analogs in vivo: reduction of serum calcium concentration, 2x2 parallel line assay; set-up: species or system Rats
Method: The biological potency of des-2-serine, 3-asparagine-salmon calcitonin was determined by comparing the reduction of serum calcium concentration which followed administration by graded doses of des-Ser^2, […] -SCT and synthetic salmon calcitonin standard. Rats were divided into four groups of seven animals, and each group was assigned at random to a dose of standard or test solution. Low and high doses were chosen from the linear portion of the dose-response curve. For the salmon calcitonin standard, the values were 0.7 and 2.1 ng. peptide/100 g. body weight (BW). This dose approximates 3 and 9 MU/100 g. BW. Peptides were given by subcutaneous injection (0.2 ml/100 g. BW) and blood was withdrawn 1 hour later for serum calcium determination. Sera are processed and analyzed within two hours of collection. […]. Results were analyzed by a 2×2 parallel line assay [Gaddum, J. H. J. Pharm. Pharmacol., 6, 345 (1953)]. The standard salmon calcitonin used was independently determined to contain greater than 4,000 IU/mg. des-Ser^2, Asn^3 -SCT assayed at 4350 IU/mg.

[2] = literature value, Monikawa et al.; cited from earlier work

## CC(C)C[C@H](NC(=O)[C@H](CCCCN)NC(=O)CNC(=O)[C@H](CC(C)C)NC(=O)[C@@H](NC(=O)[C@@H]1CSSC[C@H](N)C(=O)N[C@@H](CC(C)C)C(=O)N[C@@H](CO)C(=O)N[C@@H]([C@@H](C)O)C(=O)N1)C(C)C)C(=O)N[C@@H](CO)C(=O)N[C@@H](CCC(N)=O)C(=O)N[C@@H](CCC(=O)O)C(=O)N[C@@H](CC(C)C)C(=O)N[C@@H](Cc1c[nH]cn1)C(=O)N[C@@H](CCCCN)C(=O)N[C@@H](CC(C)C)C(=O)N[C@@H](CCC(N)=O)C(=O)N[C@H](C(=O)N[C@@H](Cc1ccc(O)cc1)C(=O)N1CCC[C@H]1C(=O)N[C@@H](CCCNC(=N)N)C(=O)N[C@H](C(=O)N[C@@H](CC(N)=O)C(=O)N[C@H](C(=O)NCC(=O)N[C@@H](CO)C(=O)NCC(=O)N[C@H](C(=O)N1CCC[C@H]1C(N)=O)[C@@H](C)O)[C@@H](C)O)[C@@H](C)O)[C@@H](C)O [des-Ser^2, Asn^3 -SCT, des-2-serine, 3-asparagine-salmon calcitonin] (H-CLSTCVLGKLSQELHKLQTYPRTNTGSGTP-NH2; disulfide 1-5)
[1]; rats, subcutaneous injection, blood withdrawn 1 hour later, vs synthetic salmon calcitonin standard
  biological potency (reduction of serum calcium concentration): 4350 IU/mg

## (1,7-α-L-amino-suberic acid)eel calcitonin
[2]
  hypocalcemic potency: about 3400 IU/mg.

## CC(C)C[C@H](NC(=O)[C@H](CCCCN)NC(=O)CNC(=O)[C@H](CC(C)C)NC(=O)[C@@H](NC(=O)[C@@H]1CSSC[C@H](N)C(=O)N[C@@H](CO)C(=O)N[C@@H](CC(N)=O)C(=O)N[C@@H](CC(C)C)C(=O)N[C@@H](CO)C(=O)N[C@@H]([C@@H](C)O)C(=O)N1)C(C)C)C(=O)N[C@@H](CO)C(=O)N[C@@H](CCC(N)=O)C(=O)N[C@@H](CCC(=O)O)C(=O)N[C@@H](CC(C)C)C(=O)N[C@@H](Cc1c[nH]cn1)C(=O)N[C@@H](CCCCN)C(=O)N[C@@H](CC(C)C)C(=O)N[C@@H](CCC(N)=O)C(=O)N[C@H](C(=O)N[C@@H](Cc1ccc(O)cc1)C(=O)N1CCC[C@H]1C(=O)N[C@@H](CCCNC(=N)N)C(=O)N[C@H](C(=O)N[C@@H](CC(N)=O)C(=O)N[C@H](C(=O)NCC(=O)N[C@@H](CO)C(=O)NCC(=O)N[C@H](C(=O)N1CCC[C@H]1C(N)=O)[C@@H](C)O)[C@@H](C)O)[C@@H](C)O)[C@@H](C)O [standard salmon calcitonin, Salmon calcitonin]
[1]; standard used in the assay, independently determined
  potency of the standard salmon calcitonin, independently determined: greater than 4,000 IU/mg

## eel calcitonin [synthetic eel calcitonin]
[2]
  hypocalcemic potency: around 4300 IU/mg.
